US20140179681A1, “METHODS AND COMPOSITIONS OF TARGETED DRUG DEVELOPMENT” (priority 2010, published 2014)
Structures can show the parent of a compound that is named as a salt. Where two headings read alike, the source gives them in different places.

Experiments:
[1] = tested on: epithelial carcinoma A431 cell line; assay: MTT Cell Proliferation Assay, A431 cells; format: cell-based; settings: for IC50: first value of cell, read-out: MTT Assay IC50(A431/MDBK): A431; for MTT Assay IC50(A431/MDBK): ratio in parentheses: ratio MDBK IC50 / A431 IC50 (selectivity)
Description: (§1) The following example describes the MTT Cell Proliferation Assay.
(§2) The MTT Cell Proliferation Assay is a colorimetric assay system that measures the reduction of the tetrazolium salt MTT (3-(4,5-dimethylthiazol-2-yl)-2,5-diphenyltetrazolium bromide) into insoluble formazan crystals, produced by the mitochondria of viable cells. […] The color can then be quantified by spectrophotometric means. Among the applications for the method are drug sensitivity, cytotoxicity, response to growth factors, and cell activation. The reduction of tetrazolium salts is now recognized as a safe, accurate alternative to radiometric testing.
(§3) Two replicates on each cell plate and 2 duplicate plates gave 4 individual replicates of each concentration, in each cell line. Concentrations were diluted in 100% DMSO from 25 mM stocks.
(§4) Twelve 96 well plates of each cell line were plated. Plating was done by dislodging cells as in passage protocol, counting on a hemocytometer, re-suspending in standard growth media, and plating using a multichannel pippetor.
(§5) 16 μl of 25 mM stock+34 μl DMSO=8 mM starting concentrations, and serial diluted as with test compounds in same plate. […] Two replicates of each concentrations was run on each cell plate. All compound addition and cell treatments were done using aseptic technique under a laminar flow aseptic hood.
(§6) Control: 0.5% DMSO in treatment media was used as the control.
(§7) MTT dye (Thiazolyl Blue Tetrazolium Bromide, Sigma cat #M5655) stock was prepared in bulk and stored at 4° C. for use: 5 mgs/ml sterile PDS, shielded from light. 4 ul of this stock per 100 uls treatment media per well was used.
(§8) Plates were incubated overnight prior to treatment, with treatment day=Day 0. Compound treatments were prepared prior to washing cells to minimize time cells were dry at room temperature after final aspiration. Compounds were diluted in 100% DMSO in 96 well polypropylene plates: 40 μl 25 mM stock+10 μl DMSO=20 mM; 20 μl of 20 mM+30 μl DMSO=8 mM; 20 μl of 8 mM+30 μl DMSO=3.2 mM; 20 μl of 3.2 mM+30 μl DMSO=1.3 mM; 20 μl of 1.3 mM+30 μl DMSO=0.51 mM.
(§9) 5.0 μl/ml were added to treatment media, in sterile, 2.2 ml deep well plates=0.5% dmso final. Ten μl of each dmso concentration was added to 2.0 ml of treatment media and then mixed using a 1200 μl multichannel pipettor. Cell plates were treated from the deep well plates. Treatment media was standard growth media containing 0.5% FBS and standard additions. This reduced FBS concentration allowed for a slower growth rate in cells.
(§10) Media was aspirated from cell plates, and washed with 200 μl/well sterile PBS. Aspirated PBS wash, and cell plates were treated with 200 μl of compound/treatment media per well, and incubated at 37° C., 5% CO2 for 3 days.
(§11) Prior to harvesting, visual observations were made under an inverted microscope. Plates were harvested by: aspirating the growth media; adding back MTT dye/100 μl treatment media; and incubating plates at 37° C. for 1 hour. MTT dye was aspirated. 100 μl/well dmso was added, and then shaken on a Bellco plate shaker for 5 minutes, at 4.5 setting.
(§12) Plates were read in a Tecan Sunrize UV plate reader, at 560 nm. Settings: Read mode, Outside Normal 2 sec; Shake settle time 3 sec. Data is reported as % inhibition, calculated for individual plates using control values from that plate.

[2] = molecular target: T1, EGFR (Homo sapiens, UniProt P00533); assay: EGFR in-cell Western (ICW) screening protocol (EGFR inhibition assay); format: cell-based; set-up: ICW 1 / ICW 2 / ICW Avg: unit not given here; settings: ICW assay; for ICW Avg: average of runs 1 and 2; for ICW 1: run 1; for ICW 2: run 2
T1 construct: host or cells: A431
Protocol: The following example describes general EGFR in-cell Western (ICW) screening protocol. Methods are according to Chen et al. (2005) Analytical Biochemistry 338, 136-142 (incorporated herein by reference), except as otherwise noted.
Cell Plates: A431 cells (ATCC # CRL-1555) were grown in Dulbecco's Modified Eagle Medium (DMEM; ATCC #30-2002) supplemented with 10% fetal bovine serum, 105 units/ml pen/strep (Invitrogen #15140155) and 2.1 mM L-glutamine (ATCC #30-2214). Cells were seeded into 96 well tissue culture plates (BD Falcon #353948) at a density of 30,000 cells per well and incubated at 37° C. with 5% CO2 overnight. Two cell plates were prepared for each compound plate.
Serum Starvation: The cells were serum starved prior to compound addition. The media was removed by aspiration and the cells washed with PBS (200 μl/well; Invitrogen #20012-027). The PBS was removed by aspiration and replaced with 200 μl of DMEM (ATCC #30-2002) supplemented with 105 units/ml pen/strep (Invitrogen #15140155) and 2.1 mM 1-glutamine (ATCC #30-2214). The cell plates were incubated at 37° C./5% CO2 for 2 hours.
Compound Plate Preparation: The test compounds were solvated in 100% DMSO (Sigma #472301-2L) at a concentration of 25 mM. Compounds found not to be completely soluble in 100% DMSO at 25 mM were diluted to 10 mM with 100% DMSO and TFA (Fluka #91699) added to a final concentration of 0.2%. 40 μl of test compound was added to the appropriate well of a 96 well plate (Falcon #351190). As controls, 6 μM EGFR kinase inhibitor PD168393 (EMD/Calbiochem #513033) in 100% DMSO and DMSO alone were added to various wells. Prepared compound plates were stored at RT prior to use and at 4° C. long term.
Compound Dilution Plate Preparation: 250 μl of DMEM supplemented with 1 mg/ml BSA (Sigma A3059-10G) was added to the appropriate wells of a 96 well plate to prepare the compound dilution plates. Using a multichannel pipettor, 1.25 μl of compound from the compound plate was transferred into the compound dilution plate.
Compound Addition: The starve media was removed from the cell plates by aspiration. Using a multichannel pipettor, the compound dilution plates were mixed by pipetting up and down three times. 50 μl of mixed, diluted compound was added to each of two rows/columns on each of two cell plates. The cell plates with compound were incubated at 37° C./5% CO2 for 4 hours.
EGF Addition: 20 ng/ml EGF (Upstate #01-107) was prepared in DMEM supplemented with 1 mg/ml BSA. 50 μl of 20 or 0 ng/ml EGF was added to the appropriate wells without the removal of compound. The compound and EGF were mixed by pipetting up and down three times. The plates were incubated at 37° C./5% CO2 for 10 min. In some screening assays the final concentration of EGF used for simulation was 6.6, or 12.5 ng/ml rather than 10 ng/ml.
Fixation and Triton Washing: The EGF+compound was removed by aspiration and 150 μl of freshly prepared Fixation Solution (1×PBS, Sigma P3813-10PK, and 4% Formaldehyde, Pierce #28908) was immediately added. The plates were incubated at RT for 20 min without shaking. The Fixation Solution was removed by aspiration and the plates washed four times with 200 μl each of Triton Wash Solution (1×PBS, Sigma P3813-10PK, and 0.1% Triton X-100, T8787-50ML) for 5 min with gentle shaking.
Blocking and Probing: Following the last Triton Wash, the plates were blocked for 1.5 h at RT with shaking using 150 μl of Odyssey Blocking Buffer (LI-COR #927-40000). The block was removed by aspiration and 50 μl of diluted primary Ab mix was added. The plates were incubated at 4° C. overnight with gentle shaking. The plates were washed five times with 200 μl of PBST (1×PBS, Sigma P3813-10PK, and 0.1% Tween-20, Sigma P9416-50ML) for 5 min each with shaking 50 μl of diluted secondary Ab mix was added and the plates incubated at RT for 1 h with shaking. The plates were washed 5× with 200 μl of PBST for 5 min each with shaking. […]

[3] = tested on: MDBK line; assay: MTT Cell Proliferation Assay, MDBK cells; format: cell-based, bovine; settings: MDBK cells, second value of cell; for IC50: read-out: MTT Assay IC50(A431/MDBK): MDBK
Description: as §1, §2, §3, §4, §5, §6, §7, §8, §9, §10, §11, §12

[4] = Homo sapiens, A-431, A431 cells

T1 sequence (P00533 25-1210): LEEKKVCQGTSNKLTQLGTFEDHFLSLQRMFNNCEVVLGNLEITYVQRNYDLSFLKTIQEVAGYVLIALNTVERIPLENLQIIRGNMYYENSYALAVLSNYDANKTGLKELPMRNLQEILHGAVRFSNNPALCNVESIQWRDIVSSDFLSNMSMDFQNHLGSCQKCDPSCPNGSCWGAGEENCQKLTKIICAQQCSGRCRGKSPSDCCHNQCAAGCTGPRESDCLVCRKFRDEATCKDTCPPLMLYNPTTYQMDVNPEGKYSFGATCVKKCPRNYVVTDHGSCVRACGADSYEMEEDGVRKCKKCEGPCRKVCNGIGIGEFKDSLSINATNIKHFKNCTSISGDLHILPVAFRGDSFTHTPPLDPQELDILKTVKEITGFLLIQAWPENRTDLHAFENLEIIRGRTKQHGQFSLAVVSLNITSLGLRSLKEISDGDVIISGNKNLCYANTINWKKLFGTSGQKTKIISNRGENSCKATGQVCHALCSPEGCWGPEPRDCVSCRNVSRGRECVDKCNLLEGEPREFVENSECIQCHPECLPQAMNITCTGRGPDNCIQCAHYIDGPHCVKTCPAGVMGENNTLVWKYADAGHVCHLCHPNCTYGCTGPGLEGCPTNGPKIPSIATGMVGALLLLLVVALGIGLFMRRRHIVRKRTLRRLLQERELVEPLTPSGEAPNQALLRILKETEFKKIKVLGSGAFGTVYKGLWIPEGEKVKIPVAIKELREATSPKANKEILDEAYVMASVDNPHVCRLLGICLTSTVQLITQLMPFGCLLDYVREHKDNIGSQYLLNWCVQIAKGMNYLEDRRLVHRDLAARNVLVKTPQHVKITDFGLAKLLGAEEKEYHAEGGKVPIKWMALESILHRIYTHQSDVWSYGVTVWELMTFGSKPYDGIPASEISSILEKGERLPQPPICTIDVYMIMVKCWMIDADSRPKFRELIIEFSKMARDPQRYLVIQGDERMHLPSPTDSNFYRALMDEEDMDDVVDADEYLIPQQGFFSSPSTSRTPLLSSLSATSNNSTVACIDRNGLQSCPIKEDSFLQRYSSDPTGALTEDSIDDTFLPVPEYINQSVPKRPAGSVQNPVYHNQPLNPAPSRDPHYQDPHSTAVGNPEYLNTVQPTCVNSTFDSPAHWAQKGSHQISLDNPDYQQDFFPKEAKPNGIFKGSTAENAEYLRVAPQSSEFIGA

Compound	IC50 [1, 4] [µM]	MTT Assay IC50(A431/MDBK): ratio in parentheses [1]	ICW Avg [2]	ICW 1 [2]	ICW 2 [2]	IC50 ([1]; A431 cells) [µM]	MTT Assay IC50(A431/MDBK): MDBK [3]	IC50 ([3]; Bos taurus, MDBK) [µM]	IC50 [3] [µM]
Cc1nc(Nc2nc(=O)c3c([nH]2)CCCC3)nc2c(C)cccc12 [11436 + TFA]	5.86	0.48	59.65	59.16	60.14			2.8	
Cc1nc(Nc2nc(=O)cc(CSc3ccc(Cl)cc3)[nH]2)nc2ccccc12 [11445 + TFA]		4.70	60.28	59.54	61.02	9.61		45.1	
COc1ccc(-c2cc(=O)[nH]c(Nc3nc(C)c4ccccc4n3)n2)cc1OC [11471 + TFA]	36.9	1.20	39.92	37.43	42.40			44.1	
COc1cccc2c(C)nc(Nc3nc4c(c(=O)[nH]3)CCCC4)nc12 [11484 + TFA]	11.3	0.86	70.65	67.84	73.46			9.72	
COc1cccc(-c2cc(=O)[nH]c(Nc3nc(C)c4cccc(OC)c4n3)n2)c1 [11513 + TFA]	6.73	0.94	33.45	32.64	34.26			6.32	
Cc1nc(Nc2nc(=O)cc(CSc3ccc(Cl)cc3)[nH]2)nc2ccccc12 [11583 + TFA]		1.00	51.10	47.93	54.26	47.3			47.3
COCc1cc(=O)nc(Nc2nc(C)c3cc(C)cc(C)c3n2)[nH]1 [11625 + TFA]	49	0.71	25.22	31.51	18.94			34.7	
Cc1ccc(C2CC(=O)c3cnc(Nc4nc(C)c5cc(C)c(C)cc5n4)nc3C2)cc1 (centres unmarked) [11670 + TFA]	13.5	1.80	25.27	34.91	15.63			24.3	
CCOc1ccc2nc(Nc3ncc4c(n3)CC(c3ccco3)CC4=O)nc(C)c2c1 (centres unmarked) [11674 + TFA]	20.2	1.76	25.04	31.91	18.16			35.5	
Cc1nc(Nc2ncc3c(n2)CC(c2ccco2)CC3=O)nc2ccccc12 (centres unmarked) [11679 + TFA]	12.6	0.70	25.83	31.02	20.64			8.73	

Second part, led by results:

IC50 [1, 4] [µM]	MTT Assay IC50(A431/MDBK): ratio in parentheses [1]	ICW Avg [2]	ICW 1 [2]	ICW 2 [2]	IC50 ([1]; A431 cells) [µM]	MTT Assay IC50(A431/MDBK): MDBK [3]	Compound	IC50 ([3]; Bos taurus, MDBK) [µM]	IC50 [3] [µM]
21.9	0.80	27.24	32.59	21.89			CCc1ccc2nc(Nc3ncc4c(n3)CC(c3cccc(Cl)c3)CC4=O)nc(C)c2c1 (centres unmarked) [11680 + TFA]	17.4	
5.47	0.75	29.86	30.46	29.26			Cc1cc2nc(Nc3ncc4c(n3)CC(c3cccs3)CC4=O)nc(C)c2cc1C (centres unmarked) [11681 + TFA]	4.08	
17.6	1.45	34.32	37.65	30.99			O=c1[nH]c(Nc2nc(-c3ccccc3)c3cc(Cl)ccc3n2)nc2ccccc12 [11706 + TFA]	25.4	
15.7		40.51	43.70	37.31		non-convergent	Cc1ccc(SCc2cc(=O)[nH]c(Nc3nc(C)c4cccc(C)c4n3)n2)cc1 [11707 + TFA]		
18.7	0.92	39.53	32.96	46.11			Cc1ccc2c(C)nc(Nc3nc(C)c(CCC(C)C)c(=O)[nH]3)nc2c1 [11712 + TFA]	17.3	
35.1	0.46	31.05	37.00	25.09			Cc1ccc(SCc2cc(=O)[nH]c(Nc3nc(C)c4cc(C)cc(C)c4n3)n2)cc1 [11727 + TFA]	16.1	
